Assay: xn = mol fraction of the nth substance listed

CCCBr + ClC(Cl)(Cl)Cl
viscosity [mPa·s], 101 kPa
Details | 293.15 K | 303.15 K | 313.15 K | 323.15 K
x1 = 0.143 | 0.855 | 0.76 | 0.678 | 0.61
x1 = 0.294 | 0.775 | 0.691 | 0.621 | 0.562
x1 = 0.445 | 0.7 | 0.625 | 0.565 | 0.512
x1 = 0.625 | 0.637 | 0.581 | 0.52 | 0.472

COCCOCCOCCOC + ClC(Cl)(Cl)Cl
298.15 K, 101 kPa
Details | viscosity [mPa·s]
x1 = 0.0041 | 0.912
x1 = 0.0202 | 0.952
x1 = 0.0485 | 1
x1 = 0.0921 | 1.08
x1 = 0.1704 | 1.198
x1 = 0.2242 | 1.288
x1 = 0.2579 | 1.333
x1 = 0.2736 | 1.364
x1 = 0.3237 | 1.437
x1 = 0.3887 | 1.52
x1 = 0.4494 | 1.59
x1 = 0.5 | 1.646
x1 = 0.5522 | 1.696
x1 = 0.6149 | 1.75
x1 = 0.6542 | 1.79
x1 = 0.7187 | 1.826
x1 = 0.7623 | 1.846
x1 = 0.8533 | 1.891
x1 = 0.8992 | 1.913
x1 = 0.9312 | 1.929

COCCOCCOCCO + ClC(Cl)=C(Cl)Cl
298.15 K, 101.33 kPa
Details | viscosity [mPa·s]
x1 = 0.0078 | 0.862
x1 = 0.016 | 0.883
x1 = 0.0295 | 0.915
x1 = 0.047 | 0.956
x1 = 0.0598 | 0.989
x1 = 0.0696 | 1.016
x1 = 0.0802 | 1.046
x1 = 0.0924 | 1.081
x1 = 0.1201 | 1.162
x1 = 0.1568 | 1.28
x1 = 0.2009 | 1.432
x1 = 0.2413 | 1.592
x1 = 0.2894 | 1.795
x1 = 0.3457 | 2.047
x1 = 0.3797 | 2.209
x1 = 0.4041 | 2.334
x1 = 0.462 | 2.64
x1 = 0.4933 | 2.812
x1 = 0.5379 | 3.072
x1 = 0.5783 | 3.326
x1 = 0.6154 | 3.56
x1 = 0.6587 | 3.856
x1 = 0.7026 | 4.163
x1 = 0.7393 | 4.431
x1 = 0.787 | 4.797
x1 = 0.8264 | 5.117
x1 = 0.886 | 5.597
x1 = 0.9108 | 5.82
x1 = 0.9403 | 6.053
x1 = 0.9649 | 6.276
x2 = 0.0193 | 6.411

COCCOCCOCCOC + ClC(Cl)Cl
298.15 K, 101 kPa
Details | viscosity [mPa·s]
x1 = 0.0083 | 0.569
x1 = 0.0278 | 0.622
x1 = 0.0552 | 0.702
x1 = 0.0851 | 0.795
x1 = 0.1347 | 0.962
x1 = 0.195 | 1.16
x1 = 0.241 | 1.295
x1 = 0.2903 | 1.425
x1 = 0.3545 | 1.559
x1 = 0.4174 | 1.678
x1 = 0.4686 | 1.717
x1 = 0.5236 | 1.766
x1 = 0.5853 | 1.809
x1 = 0.631 | 1.836
x1 = 0.708 | 1.868
x1 = 0.7445 | 1.893
x1 = 0.8071 | 1.901
x1 = 0.8627 | 1.918
x1 = 0.9174 | 1.934
x2 = 0.0147 | 1.949

COCCOCCOCCO + ClC=C(Cl)Cl
298.15 K, 101.33 kPa
Details | viscosity [mPa·s]
x1 = 0.0056 | 0.538
x1 = 0.0133 | 0.554
x1 = 0.0235 | 0.574
x1 = 0.0377 | 0.603
x1 = 0.0554 | 0.645
x1 = 0.0751 | 0.694
x1 = 0.0865 | 0.725
x1 = 0.1057 | 0.778
x1 = 0.1359 | 0.869
x1 = 0.171 | 0.983
x1 = 0.2125 | 1.134
x1 = 0.2627 | 1.342
x1 = 0.286 | 1.451
x1 = 0.3201 | 1.615
x1 = 0.3511 | 1.784
x1 = 0.3864 | 1.974
x1 = 0.4202 | 2.172
x1 = 0.4548 | 2.382
x1 = 0.4947 | 2.633
x1 = 0.5322 | 2.875
x1 = 0.5817 | 3.21
x1 = 0.6349 | 3.596
x1 = 0.6824 | 3.953
x1 = 0.7308 | 4.32
x1 = 0.7791 | 4.716
x1 = 0.8178 | 5.027
x1 = 0.8689 | 5.459
x1 = 0.9106 | 5.813
x1 = 0.9455 | 6.128
x1 = 0.9667 | 6.324
x2 = 0.0177 | 6.438

— the CheMixHub viscosity set
